Key:
[1] = tested on: humanized Siglec-11 transgenic mice; assay: Experimental autoimmune encephalomyelitis (animal model of multiple sclerosis); assay type: in vivo
Protocol: Experimental autoimmune encephalomyelitis was induced in humanized Siglec-11 transgenic mice (humanized Siglec-11 mouse) and littermate control mice (normal control mice). Therefore, adult 6-8 weeks-old female humanized Siglec-11 transgenic mice (Wang et al. 2009, dissertation, University Bonn, uniform resource name: urn:nbn:de:hbz:5N-18095) and littermate control mice were immunized with 100 μg of myelin oligodendrocyte glycoprotein MOG (amino acids 35-55; Seqlab) in […] Freunds adjuvant (both DIFCO; BD GmbH, Heidelberg, Germany). Pertussis toxin (200 ng; List Biological Laboratories, Epsom, UK) was injected on days 0 and 2 of immunization. Clinical signs were scored as following: 0, no clinical signs; 1, complete limp tail; 2, complete limp tail and weakness of hindlimbs; 3, paraparesis of at least one hindlimb; 4, complete hindlimb paraparesis and weakness of forelimbs; and 5, fore- and hindlimb paralysis or moribund. Only mice having disease onset (clinical score of >=1) until day 20 were used for experiments.
Low molecular weight PSA-20 (1 μg per g body weight) was applied intraperitoneally into the mice on the day of disease onset (clinical score at least 1) and daily on the following three consecutive days. […] The cumulative disease score from the first day of treatment until day 25 was determined.

[2] = tested on: human microglial cells; assay: Phagocytosis associated oxidative burst: neural debris triggered superoxide release (DHE); assay type: cell-based
Protocol: To measure the relative production of superoxide by the microglial cells, human microglial cells were plated in 4-chamber culture dishes. After 24 hours cells were treated with 5 mg/ml neural debris for 15 minutes with or without 1 hour PSA-20 pre-incubation at concentrations of 0.15 μM, 0.5 μM or 1.5 μM. Then, cells were washed 2-times with Krebs-HEPES-buffer. To detect the release of superoxide the cells were afterwards incubated for 15 minutes with 30 μM superoxide-sensitive fluorescent dye dihydroethidium (DHE) solution diluted in Krebs-HEPES-buffer. Finally cells were washed 2-times with Krebs-HEPES-buffer and fixed for 15 minutes with 0.25% glutaraldehyde and 4% PFA. In total, six images were randomly collected per experimental group by confocal laser scanning microscopy (Fluoview 1000, Olympus). All cells of the collected images were analyzed by Image J software (NIH).
To confirm the effect, Trolox as scavenger of superoxide and superoxide dismutase-1 (SOD1) as modifier of superoxide were used in a control experiment as described above using 1.5 μM of PSA-20 but adding either 40 μM Trolox or 20 μg/ml (SOD1) into the medium. […] As can be taken from the FIG. 9C, the radical scavenger Trolox and the superoxide dismutase SOD1 neutralized the neural debris triggered superoxide release and as controls confirmed that DHE detected an extracellular production of superoxide.

poly-(α(2→8)Neu5Ac)n [PSA-20] was tested, and the “clinical signs (clinical score)” value ([1]; Siglec-11 transgenic mice, 1 μg per g body weight i.p. from disease onset, 4 days, from day 14 onwards, FIG. 8A) was “improved clinical signs”, the cumulative disease score ([1]; first day of treatment until day 25, FIG. 8B) was “improved the clinical signs of disease” and the “superoxide release triggered by neural debris” value ([2]; 0.5 μM and 1.5 μM) was “inhibited”. For the same substance, the “relative superoxide production, debris-induced” value ([2]; 1.5 μM, 1 hour pre-incubation, debris alone 1.5+/−0.08, FIG. 9C) was 0.9+/−0.05.

Source: patent US9944721B2, “Polysialic acid and use for treatment of neurodegenerative and neuroinflammatory diseases” (RHEINISCHE FRIEDRICH-WILHELMS UNIVERSITÄT BONN, priority 2013, dated 2018)
